For assay [1], the system named is SHR-SP rats. Put plainly: 2-lever discriminative reaction task in SHR-SP rats (ADHD model). It is filed as in vivo, rat. An excerpt: A. Test method (1) While spontaneously hypertensive rat (SHR) is a hypertension model rat widely used in research, this lineage not only develops hypertension but also behaves similarly in the juvenile stage to patients with attention deficit/hyperactivity disorder (attention-deficit/hyperactivity disorder: ADHD), as evidenced by disrupted retention of attention and the like (Sagvolden T, Russell V A, Aase H, Johansen E B, Farshbaf M. (2005): Rodent models of attention-deficit/hyperactivity disorder. Biol Psychiatry. 57(11): 1239-47). Particularly, SHR-SP (subtype of SHR) in the juvenile stage is recently recognized as an animal model of developmental disorder such as ADHD by those of ordinary skill in the art (Ueno K I, Togashi H, Mori K, Matsumoto M, Ohashi S, Hoshino A, Fujita T, Saito H, Minami M, Yoshioka M. (2002): Behavioural and pharmacological relevance of stroke-prone spontaneously hypertensive rats as an animal model of a developmental disorder. Behav Pharmacol. 13(1): 1-13).
Thus, those of ordinary skill in the art consider that SHR-SP is suitable as an ADHD model.
Therefore, the inventor employed the SHR-SP rats and evaluated the effect of compound A on ADHD.
(2) The test was performed using 24 SHR-SP rats and 12 WKY rats (both 5-week-old; provided by CLEA Japan, Inc.). They were reared at 12 hr light-dark cycle (light was on at 7:00 am) and allowed free access to water. The feeding was restricted such that the body weight was 85% of that by free food ingestion. All rats were subjected to handling before the test.
As a test apparatus, 4 Skinner boxes each equipped with a 45 mg feed pellet feeding tray (reward delivery opening) in the center of the wall and a cue lamp and a retractable lever set on the sides of the tray were set (see FIG. 1).
(3) The rats were trained for 2 days for lever pressing-feeding associative learning. One session consisted of 30 trials or 900 sec. Two levers were presented, pressing either lever affords feed pellets (reinforcer), and a buzzer sound indicating correctness was made. Solely in the training on the initial day, feed pellets were automatically given with a buzzer every 45 seconds. All animals reached the criteria obtaining 30 feed pellets within 300 sec. (4) In the test session, a 2-lever discriminative reaction task was performed. In the 2-lever discriminative reaction task, 1 session consisted of 30 sets of ITI (inter-trial interval) for 30 sec and reaction latency for 30 sec maximum. The house lamp was turned on at the start of the session to indicate both retractable levers. The lever pressing reaction of the animal was sequentially recorded while indicating the levers until completion of 30 trials. […]

Assay [2] concerns SHR-SP. Conditions: at a low dose; cited from earlier work.

This is an account of results in patent publication US20170128409A1, “PROPHYLACTIC OR THERAPEUTIC AGENT FOR ATTENTION DEFICIT/HYPERACTIVITY DISORDER” (Takeda Pharmaceutical Company Limited, priority 2008, published 2017).

Consider `CCC(=O)NCC[C@@H]1CCc2ccc3c(c21)CCO3` [compound A, (S)—N-[2-(1,6,7,8-tetrahydro-2H-indeno[5,4-b]furan-8-yl)ethyl]propionamide], for which the “transition of total number of reaction during trials (index of impulsivity)” value in assay [1] (1.0 mg/kg oral daily, up to session 4, positive drug group vs control group, FIG. 5) is recorded as “similar”. Also, in assay [1] (1.0 mg/kg oral, 14 consecutive days, positive drug group vs control group, FIG. 7), the “correct answer latency (reaction latency when correct answer was selected) (index of motivation, sedation and the like)” value is on record as “did not show much difference”. The “number of correct answers (number of reward obtained) (index of attentional deficit)” value in assay [1] (1.0 mg/kg oral, 14 consecutive days, positive drug group vs control group, p=0.09, FIG. 6) is reported as “tended to increase”. Besides, the “total number of reaction during trials (index of impulsivity)” value in assay [1] (1.0 mg/kg oral, 14 consecutive days, session 11, positive drug group vs control group, t-test p=0.09, FIG. 5) is “tended to decrease”.
Consider `COC(=O)C(c1ccccc1)C1CCCCN1` (centres unmarked) [methylphenidate], for which, in assay [2], the “effect on abnormal behaviors of SHR-SP” value is “improving effect”.
